These results are taken from patent US20030013660A1, “Dioxolane analogs for improved inter-cellular delivery” (Shire BioChem Inc., priority 2000, published 2003).

For test [1], the system named is H-460. The test can be described thus: 3H-TdR incorporation at 72 hr (24 hr drug exposure, wash, 48 hr). The format is cell-based, Human. The procedure:
(§1) Exposition of 24 hr to drug, wash, incubated for another 48 hr (total of 72 hr assay)
(§2) (3H-Thymidine Incorporation Assay)

Test [2] deals with CEM/dCK-. The test is described as above. Format: cell-based. The note with it: ratio of IC50 CEM/dCK- to IC50 CCRF-CEM. The procedure: as §1, §2
Test [3] relates to MCF-7. The test is described as above. Format: cell-based, Human. The note with it: Homo sapiens, MCF7, read-out: IC50 in μM (3H-TdR incorporation at 72 hr) MCF-7 24 h, MCF-7 Human Breast Carcinoma, 72 hr assay. The procedure: as §1, §2
In test [4] the test system is SF-268. Described as above. The note with it: Homo sapiens, SF-268, read-out: IC50 in μM (3H-TdR incorporation at 72 hr) SF-268 24 h, SF-268 Human Central Nervous System Tumor; 24 h drug exposure, 72 hr assay. Format: cell-based, Human. Here is the method:
as §1, §2

The subject of test [5] is H-460. The experiment in a line: 3H-TdR (3H-thymidine) incorporation assay at 72 hr. Format: cell-based, Human. The note with it: Homo sapiens, NCI-H460, read-out: IC50 H-460 24 h, 24 h drug exposure, wash, another 48 hr; 3H-TdR incorporation at 72 hr.
Test [6] relates to MCF-7. The test can be described thus: 3H-TdR (3H-thymidine) incorporation assay at 72 hr. The note with it: Homo sapiens, MCF7, read-out: IC50 MCF-7 24 h, 24 h drug exposure, wash, another 48 hr; 3H-TdR incorporation at 72 hr. Format: cell-based, Human.
Test [7] has as its system SF-268. The test can be described thus: 3H-TdR (3H-thymidine) incorporation assay at 72 hr. The note with it: Homo sapiens, SF-268, read-out: IC50 SF-268 24 h, 24 h drug exposure, wash, another 48 hr; 3H-TdR incorporation at 72 hr. Format: cell-based, Human.
A further test relates to CCRF-CEM. The experiment in a line: 3H-TdR (3H-thymidine) incorporation assay at 72 hr. The format is cell-based. The note with it: Homo sapiens, CCRF-CEM, read-out: IC50 CCRF-CEM 24 h, 24 h drug exposure, wash, another 48 hr; 3H-TdR incorporation at 72 hr. The procedure:
(§3) Table of IC50 Values (μM) for Controls
as §1, §2

Test [8] relates to CEM/dCK-. The experiment in a line: 3H-TdR (3H-thymidine) incorporation assay at 72 hr. Format: cell-based. The note with it: for pIC50: Homo sapiens, CCRF-CEM, read-out: IC50 CEM/dCK- 24 h, 24 h drug exposure, wash, another 48 hr, deoxycytidine kinase-deficient CCRF-CEM; for Factor* (Resistance Factor = Ratio of dCK- on Wild-type CCRF-CEM): ratio of IC50 CEM/dCK- to CCRF-CEM, 24 h. The procedure:
as §3, §1, §2

[9] abbreviates: read-out: IC50 in μM (3H-TdR incorporation at 72 hr) H-460 24 h, H-460 Human Lung Carcinoma, 72 hr assay.

Structures are written as SMILES. pIC50: −log10 of the molar value. Values joined by “and” are separate entries in the source; they are usually repeats but may differ in a detail not shown here. Equal entries are not always repeated.

For the molecule `Nc1ccn([C@@H]2CO[C@H](COC(=O)c3ccc([N+](=O)[O-])cc3)O2)c(=O)n1` [Compound 204, 4-NITRO-BENZOIC ACID 4- (4-AMINO-2-OXO-2H- PYRIMIDIN-1-YL)- [1,3]DIOXOLAN-2-YL METHYL ESTER], the IC50 in the test with H-460 [1] (setting [9]) amounted to 0.015 µM. Besides, the “Factor* (Resistance Factor = Ratio of dCK- on Wild-type CCRF-CEM)” value in the test on CEM/dCK- [2] worked out at 1600.
`CC(=O)Oc1ccc(COC(=O)Nc2ccn([C@@H]3CO[C@H](CO)O3)c(=O)n2)cc1` [Compound 203, ACETIC ACID 4-[1-(2- HYDROXYMETHYL- [1,3]DIOXOLAN-4-YL)-2- OXO-1,2-DIHYDRO- PYRIMIDIN-4- YLCARBAMOYLOXYMETHYL]- PHENYL ESTER]: the IC50 in the test with H-460 [1] (Homo sapiens, NCI-H460, read-out: IC50 in μM (3H-TdR incorporation at 72 hr) H-460 24 h, H-460 Human Lung Carcinoma, 72 hr assay) is under 0.0001 µM; in the test with MCF-7 [3] it was under 0.0001 µM; in the test on SF-268 [4] it was under 0.0001 µM.
With `Nc1ccn([C@@H]2CO[C@H](COC(=O)c3ccc(C(F)(F)F)cc3)O2)c(=O)n1` [Compound 189, 4-TRIFLUOROMETHYL- BENZOIC ACID 4-(4- AMINO-2-OXO-2H- PYRIMIDIN-1-YL)- [1,3]DIOXOLAN-2-YL METHYL ESTER], the IC50 with H-460 [1] (setting [9]) came to 0.0012 µM. In the test on CEM/dCK- [2], the “Factor* (Resistance Factor = Ratio of dCK- on Wild-type CCRF-CEM)” value is 1333 and 1300.
Turning to `COC(OC)OC[C@H]1OC[C@@H](n2ccc(N)nc2=O)O1` [Compound 38, 4-AMINO-1-(2- DIMETHOXYMETHOXYMETHYL- [1,3]DIOXOLAN-4-YL)-1H- PYRIMIDIN-2-ONE], the pIC50 is 6.47 with H-460 [5]; 6.00 in the test on MCF-7 [6]; 6.05 in the test with SF-268 [7]; 6.96 in the test on CCRF-CEM; under 4.00 with CEM/dCK- [8]. The “Factor* (Resistance Factor = Ratio of dCK- on Wild-type CCRF-CEM)” value in the test on CEM/dCK- [8] is 909.
For `CN(Cc1ccccc1)C(=O)OC[C@H]1OC[C@@H](n2ccc(N)nc2=O)O1` [Compound 140, BENZYL-METHYL-CARBAMIC ACID 4-(4-AMINO-2-OXO- 2H-PYRIMIDIN-1-YL)- [1,3]DIOXOLAN-2- YLMETHYL ESTER], the pIC50 was 5.00 in the test on H-460 [5]; 4.70 in the test on MCF-7 [6]; 5.52 in the test with SF-268 [7]; 4.96 with CCRF-CEM; under 4.00 in the test on CEM/dCK- [8]. Besides, in the test with CEM/dCK- [8], the “Factor* (Resistance Factor = Ratio of dCK- on Wild-type CCRF-CEM)” value was over 9.
Take `CC(C)(C)OC(=O)N(CCCCCC(=O)Nc1ccn([C@@H]2CO[C@H](COC(=O)CCCCCN(Cc3ccccc3)C(=O)OC(C)(C)C)O2)c(=O)n1)Cc1ccccc1` [Compound 78, 6-(Benzyl-tert-butoxycarbonyl-amino)-hexanoic acid 4-{4-[6-(benzyl-tert-butoxycarbonyl-amino)-hexanoylamino]-2-oxo-2H-pyrimidin-1-yl}-[1,3]dioxolan-2-ylmethyl ester]: the pIC50 was 7.38 with H-460 [5]; 7.35 with MCF-7 [6]; 7.02 in the test on SF-268 [7]; 7.43 with CCRF-CEM; 4.89 in the test with CEM/dCK- [8]. Further, in the test with CEM/dCK- [8], the “Factor* (Resistance Factor = Ratio of dCK- on Wild-type CCRF-CEM)” value turned out to be 351.
Take `CCCCC(C)C(=O)OC[C@H]1OC[C@@H](n2ccc(N)nc2=O)O1.Cl` (stereo partly drawn) [Compound 86, (2S,4S)-2-(2″-METHYL- HEXANOICOXYMETHYL)-4- CYTOSIN-1′-YL-1,3- DIOXOLANE HYDROCHLORIDE]: the pIC50 with H-460 [5] is 8.70; with MCF-7 [6] it was 8.72; in the test on SF-268 [7] it was 7.89; with CCRF-CEM it was 8.96; in the test with CEM/dCK- [8] it was 5.40. Besides, in the test on CEM/dCK- [8], the “Factor* (Resistance Factor = Ratio of dCK- on Wild-type CCRF-CEM)” value was 3,636.
Consider `Nc1ccn([C@@H]2CO[C@H](COC3(c4ccccc4)c4ccccc4Oc4ccccc43)O2)c(=O)n1` [Compound 146, 4-AMINO-1-[2-(9-PHENYL- 9#H!-XANTHEN-9- YLOXYMETHYL)- [1,3]DIOXOLAN-4-YL]- 1#H!-PYRIMIDIN-2-ONE], for which the pIC50 in the test on H-460 [5] is 6.11; in the test on MCF-7 [6], 5.92; in the test on SF-268 [7], 7.55; in the test with CCRF-CEM, 6.89; in the test on CEM/dCK- [8], 4.30. For the same molecule, in the test with CEM/dCK- [8], the “Factor* (Resistance Factor = Ratio of dCK- on Wild-type CCRF-CEM)” value was 385.
